Several values for one entry are separate records, joined by “and”; a condition that tells them apart may be missing. Equal entries are not always repeated. Toxic doses and inconclusive results are not listed. Cut-off read from the data, not from the text of the source: active = T/C of 150% or more; inactive = T/C below 125%.
Test system: L1210 leukemia ip in BDF1 mice, survival T/C
Assay: NCI In Vivo Anticancer Drug Screen. Data for tumor model L1210 Leukemia (intraperitoneal) in B6D2F1 (BDF1) mice
Conditions: endpoint: mean survival time, higher = longer survival
In short: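 Read-out is survival time, reported as the treated-group measurement over the vehicle-control measurement.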

[1] = dose: 100.0 mg/kg/injection, schedule: Q04DX002 (ip), vehicle: Klucel (hydroxypropylcellulose) (HPC)
[2] = dose: 200.0 mg/kg/injection, schedule: Q04DX002 (ip), vehicle: Klucel (hydroxypropylcellulose) (HPC)
[3] = dose: 50.0 mg/kg/injection, schedule: Q01DX001 (ip), vehicle: saline
[4] = dose: 100.0 mg/kg/injection, schedule: Q01DX001 (ip), vehicle: saline
[5] = dose: 200.0 mg/kg/injection, schedule: Q01DX001 (ip), vehicle: saline
[6] = dose: 400.0 mg/kg/injection, schedule: Q01DX001 (ip), vehicle: saline
[7] = dose: 100.0 mg/kg/injection, schedule: Q01DX009 (ip), vehicle: Klucel (hydroxypropylcellulose) (HPC)
[8] = dose: 100.0 mg/kg/injection, schedule: Q04DX003 (ip), vehicle: Klucel (hydroxypropylcellulose) (HPC)
[9] = dose: 200.0 mg/kg/injection, schedule: Q01DX009 (ip), vehicle: Klucel (hydroxypropylcellulose) (HPC)
[10] = dose: 200.0 mg/kg/injection, schedule: Q04DX003 (ip), vehicle: Klucel (hydroxypropylcellulose) (HPC)
[11] = dose: 400.0 mg/kg/injection, schedule: Q01DX009 (ip), vehicle: Klucel (hydroxypropylcellulose) (HPC)
[12] = dose: 400.0 mg/kg/injection, schedule: Q04DX003 (ip), vehicle: Klucel (hydroxypropylcellulose) (HPC)
[13] = dose: 100.0 mg/kg/injection, schedule: Q04DX003 (ip), vehicle: saline
[14] = dose: 200.0 mg/kg/injection, schedule: Q04DX003 (ip), vehicle: saline
[15] = dose: 400.0 mg/kg/injection, schedule: Q04DX003 (ip), vehicle: saline
[16] = dose: 100.0 mg/kg/injection, schedule: Q04DX002 (ip), vehicle: saline
[17] = dose: 50.0 mg/kg/injection, schedule: Q01DX009 (ip), vehicle: saline with Tween-80
[18] = dose: 100.0 mg/kg/injection, schedule: Q01DX009 (ip), vehicle: saline with Tween-80
[19] = dose: 200.0 mg/kg/injection, schedule: Q01DX009 (ip), vehicle: saline with Tween-80

Measured: T/C

O=[N+]([O-])c1ccc2c(c1)-c1ccccc1C2Cl (stereo unspecified)
inactive: dose: 100.0 mg/kg/injection, schedule: Q01DX005 (ip), vehicle: Klucel (hydroxypropylcellulose) (HPC) 94 % of control | [1] 111 % of control | dose: 200.0 mg/kg/injection, schedule: Q01DX005 (ip), vehicle: Klucel (hydroxypropylcellulose) (HPC) 91 % of control | [2] 101 % of control | dose: 400.0 mg/kg/injection, schedule: Q01DX005 (ip), vehicle: Klucel (hydroxypropylcellulose) (HPC) 88 % of control | dose: 400.0 mg/kg/injection, schedule: Q04DX002 (ip), vehicle: Klucel (hydroxypropylcellulose) (HPC) 96 % of control

O=C(c1ccccc1)C1CCCC1
inactive: [1] 89 % of control | [2] 105 % of control

C1=CC(=P(c2ccccc2)(c2ccccc2)c2ccccc2)C=C1
inactive: dose: 30.0 mg/kg/injection, schedule: Q01DX015 (ip), vehicle: saline 95 % of control | [3] 92 % of control | dose: 60.0 mg/kg/injection, schedule: Q01DX015 (ip), vehicle: saline 89 % of control | [4] 97 % of control | dose: 120.0 mg/kg/injection, schedule: Q01DX015 (ip), vehicle: saline 91 % of control | [5] 98 % of control | dose: 240.0 mg/kg/injection, schedule: Q01DX015 (ip), vehicle: saline 91 % of control | [6] 97 % of control

CC(C)CC(=O)NC(C)C(=O)NC(Cc1ccccc1)C(=O)CCl (stereo unspecified)
inactive: dose: 12.0 mg/kg/injection, schedule: Q04DX002 (ip), vehicle: Klucel (hydroxypropylcellulose) (HPC) 109 % of control | dose: 25.0 mg/kg/injection, schedule: Q04DX002 (ip), vehicle: Klucel (hydroxypropylcellulose) (HPC) 98 % of control | dose: 50.0 mg/kg/injection, schedule: Q04DX002 (ip), vehicle: Klucel (hydroxypropylcellulose) (HPC) 106 % of control

Cc1ccc(Oc2c3c(nc4ccccc24)CCCC3)cc1
inactive: [7] 104 % of control | [8] 101 % of control | [9] 98 % of control | [10] 96 % of control | [11] 96 % of control | [12] 93 % of control

ClC1C2C=CC1CC2 (stereo unspecified)
inactive: dose: 100.0 mg/kg/injection, schedule: Q01DX001 (ip), vehicle: carboxymethylcellulose (CMC) 90 % of control | dose: 200.0 mg/kg/injection, schedule: Q01DX001 (ip), vehicle: carboxymethylcellulose (CMC) 90 % of control | dose: 400.0 mg/kg/injection, schedule: Q01DX001 (ip), vehicle: carboxymethylcellulose (CMC) 93 % of control

O=C(O)/C=C/c1ccccc1Br
inactive: [3] 97 % of control | [4] 91 % of control | [7] 102 % of control | [5] 94 % of control | [9] 100 % of control | [6] 97 % of control | [11] 100 % of control

CC(=O)OC1C=CCC2C(=O)C34CC=CC(OC(C)=O)C3(C(=O)c3ccccc3C4=O)C(=O)C12 (stereo unspecified)
inactive: dose: 0.25 mg/kg/injection, schedule: Q04DX003 (ip), vehicle: water 97 % of control | dose: 0.5 mg/kg/injection, schedule: Q04DX003 (ip), vehicle: water 102 % of control | dose: 1.0 mg/kg/injection, schedule: Q04DX003 (ip), vehicle: water 95 % of control | dose: 2.0 mg/kg/injection, schedule: Q04DX003 (ip), vehicle: water 98 % of control | dose: 4.0 mg/kg/injection, schedule: Q04DX003 (ip), vehicle: water 102 % of control | dose: 8.0 mg/kg/injection, schedule: Q04DX003 (ip), vehicle: water 107 % of control | dose: 16.0 mg/kg/injection, schedule: Q04DX003 (ip), vehicle: saline 96 % of control | dose: 16.0 mg/kg/injection, schedule: Q04DX003 (ip), vehicle: water 92 % of control | dose: 32.0 mg/kg/injection, schedule: Q04DX003 (ip), vehicle: saline 98 % of control | dose: 64.0 mg/kg/injection, schedule: Q04DX003 (ip), vehicle: saline 102 % of control

Nc1cccc(/C=C/c2ccncc2)c1
inactive: [7] 97 % of control | [9] 94 % of control | [11] 95 % of control

CC(C)NNC(=O)c1ccc(N)cc1
inactive: [13] 105 % of control | [14] 113 % of control | [15] 108 % of control

O=S(=O)(c1ccccc1)c1ccccc1
inactive: [8] 104 % of control | dose: 100.0 mg/kg/injection, schedule: Q04DX003 (ip), vehicle: saline with Tween-80 95 % of control | [10] 111 % of control | dose: 200.0 mg/kg/injection, schedule: Q04DX003 (ip), vehicle: saline with Tween-80 103 % of control | [12] 87 % of control | dose: 400.0 mg/kg/injection, schedule: Q04DX003 (ip), vehicle: saline with Tween-80 89 % of control

Cc1ccc(CCN)cc1C
inactive: dose: 25.0 mg/kg/injection, schedule: Q04DX003 (ip), vehicle: saline 103 % of control | dose: 50.0 mg/kg/injection, schedule: Q04DX003 (ip), vehicle: saline 101 % of control | [13] 101 % of control and 112 % of control

CCOC(=O)N1CCN(C(=S)[S-])CC1.CCOC(=O)N1CCN(C(=S)[S-])CC1.[Zn]
inactive: dose: 150.0 mg/kg/injection, schedule: Q01DX001 (ip), vehicle: saline 86 % of control | dose: 300.0 mg/kg/injection, schedule: Q01DX001 (ip), vehicle: saline 87 % of control

CN(C)C(=O)OC(C)(C)C
inactive: [16] 97 % of control | dose: 200.0 mg/kg/injection, schedule: Q04DX002 (ip), vehicle: saline 101 % of control | dose: 400.0 mg/kg/injection, schedule: Q04DX002 (ip), vehicle: saline 97 % of control

CC1(CBr)OCCCO1
inactive: dose: 25.0 mg/kg/injection, schedule: Q01DX009 (ip), vehicle: saline with Tween-80 96 % of control | dose: 25.0 mg/kg/injection, schedule: Q04DX002 (ip), vehicle: saline 93 % of control | [17] 103 % of control | dose: 50.0 mg/kg/injection, schedule: Q04DX002 (ip), vehicle: saline 93 % of control | [18] 103 % of control | dose: 100.0 mg/kg/injection, schedule: Q04DX002 (ip), vehicle: saline with Tween-80 95 % of control | [16] 93 % of control

Ic1ccc(Oc2ccc(I)cc2)cc1
inactive: [8] 113 % of control | [10] 90 % of control | dose: 222.0 mg/kg/injection, schedule: Q01DX Z (ip), vehicle: methylcellulose (MC) 92 % of control | dose: 333.0 mg/kg/injection, schedule: Q01DX Z (ip), vehicle: methylcellulose (MC) 92 % of control | [12] 98 % of control | dose: 500.0 mg/kg/injection, schedule: Q01DX Z (ip), vehicle: methylcellulose (MC) 100 % of control

NCCS(=O)c1ccccc1 (stereo unspecified)
inactive: [13] 96 % of control | [14] 96 % of control | [15] 113 % of control

CCc1ccccc1NC(=O)Nc1cccc(O)c1
inactive: [18] 100 % of control | [19] 89 % of control | dose: 400.0 mg/kg/injection, schedule: Q01DX009 (ip), vehicle: saline with Tween-80 94 % of control

COC(=O)C(CC/C(=N\NC(N)=O)c1ccccc1)C(=O)OC
inactive: [17] 98 % of control | [18] 98 % of control | [19] 91 % of control

O=C(NC(C(O)CO)C(O)C(O)CO)c1ccccc1 (stereo unspecified)
inactive: [13] 104 % of control | [14] 105 % of control | [15] 102 % of control

Cc1ncc2n1C=CN(C(=O)c1ccc([N+](=O)[O-])cc1)C2O (stereo unspecified)
inactive: dose: 100.0 mg/kg/injection, schedule: Q01DX009 (ip), vehicle: water 98 % of control | dose: 200.0 mg/kg/injection, schedule: Q01DX009 (ip), vehicle: water 98 % of control | dose: 400.0 mg/kg/injection, schedule: Q01DX009 (ip), vehicle: water 93 % of control

Oc1cc(Cl)c(Cl)cc1Cl.[Cu+2]
inactive: dose: 12.5 mg/kg/injection, schedule: Q04DX003 (ip), vehicle: gum acacia 92 % of control | dose: 25.0 mg/kg/injection, schedule: Q04DX003 (ip), vehicle: gum acacia 93 % of control

Nc1nc(SCc2ccccc2Cl)cc(C(=O)O)n1
inactive: dose: 50.0 mg/kg/injection, schedule: Q01DX Z (ip), vehicle: methylcellulose (MC) 102 % of control
